Measurements published in US4471131A, “Novel silyl esters of N-phosphonomethylglycine” (Monsanto Company, priority 1983, dated 1984).

Key:
Test in all cases: post-emergence herbicidal activity, greenhouse
Assay type in all cases: in vivo
Pennsylvania Smartweed = conditions: Table III
Summary of the method: (§1)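 Each treated pan, grown from seed in topsoil and watered from below, was sprayed at the age of two to three weeks with a solution or suspension of about 0.4% emulsifier by weight carrying the test compound. Injury relative to control pans was recorded roughly two and four weeks afterward.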

Downy Brome = tested on: Downy Brome
Summary of the method: as §1

Yellow Nutsedge = conditions: Table II
Summary of the method: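 Plants grown from seed or vegetative propagules in topsoil pans on a greenhouse sand bench, watered from below, were atomizer-sprayed at two to three weeks of age. The spray carried about 0.4% by weight emulsifier. Injury relative to unsprayed control pans was scored approximately two and four weeks after treatment.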

Cocklebur = tested on: Cocklebur
Summary of the method: as §1

Wild Buckwheat = conditions: Table III
Summary of the method: as §1

[1] = 2 WAT, .28 kg/h, formulated in anhydrous tetrahydrofuran
[2] = 4 WAT, 1.1 kg/h, formulated in anhydrous tetrahydrofuran
[3] = 4 WAT, 5.6 kg/h, formulated in anhydrous tetrahydrofuran
[4] = 4 WAT, .28 kg/h, formulated in anhydrous tetrahydrofuran
[5] = Table II, 2 WAT, 5.6 kg/h, formulated in anhydrous tetrahydrofuran
[6] = Table II, 2 WAT, 11.2 kg/h, formulated in anhydrous tetrahydrofuran
[7] = Table II, 4 WAT, 5.6 kg/h, formulated in anhydrous tetrahydrofuran
[8] = Table II, 4 WAT, 11.2 kg/h, formulated in anhydrous tetrahydrofuran
[9] = Table III, 2 WAT, 1.1 kg/h, formulated in anhydrous tetrahydrofuran
[10] = Table III, 2 WAT, 5.6 kg/h, formulated in anhydrous tetrahydrofuran
[11] = Table III, 2 WAT, .28 kg/h, formulated in anhydrous tetrahydrofuran
[12] = Table III, 4 WAT, 1.1 kg/h, formulated in anhydrous tetrahydrofuran
[13] = Table III, 4 WAT, 5.6 kg/h, formulated in anhydrous tetrahydrofuran
[14] = Table III, 4 WAT, .28 kg/h, formulated in anhydrous tetrahydrofuran
[15] = 2 WAT, 5.6 kg/h, formulated in anhydrous tetrahydrofuran

SMILES: CCOC(=O)CNCP(=O)(O)O[Si](c1ccccc1)(c1ccccc1)C(C)(C)C [Ex. 7, Glycine, N--((([(1,1-Dimethylethyl)Diphenylsilyl]Oxy)Hydroxyphosphinyl)Methyl)-,Ethyl Ester]
- Plant Response Index (F) (Pennsylvania Smartweed; 2 WAT, .28 kg/h): 3 (75-99% inhibition)
- Plant Response Index (F) (Pennsylvania Smartweed; [1]): 2 (50-74% inhibition)
- Plant Response Index (F) (Pennsylvania Smartweed; 4 WAT, 1.1 kg/h): 3 (75-99% inhibition)
- Plant Response Index (F) (Pennsylvania Smartweed; [2]): 4 (100% inhibition)
- Plant Response Index (F) (Pennsylvania Smartweed; 4 WAT, 5.6 kg/h): 3 (75-99% inhibition)
- Plant Response Index (F) (Pennsylvania Smartweed; [3]): 4 (100% inhibition)
- Plant Response Index (F) (Pennsylvania Smartweed; 4 WAT, .28 kg/h): 3 (75-99% inhibition)
- Plant Response Index (F) (Pennsylvania Smartweed; [4]): 2 (50-74% inhibition)
- Plant Response Index (J) (Downy Brome; Table II, 2 WAT, 5.6 kg/h): 2 (50-74% inhibition)
- Plant Response Index (J) (Downy Brome; [5]): 1 (25-49% inhibition)
- Plant Response Index (J) (Downy Brome; Table II, 2 WAT, 11.2 kg/h): 2 (50-74% inhibition)
- Plant Response Index (J) (Downy Brome; [6]): 1 (25-49% inhibition)
- Plant Response Index (J) (Downy Brome; Table II, 4 WAT, 5.6 kg/h): 3 (75-99% inhibition)
- Plant Response Index (J) (Downy Brome; [7]): 1 (25-49% inhibition)
- Plant Response Index (J) (Downy Brome; Table II, 4 WAT, 11.2 kg/h): 3 (75-99% inhibition)
- Plant Response Index (J) (Downy Brome; [8]): 1 (25-49% inhibition)
- Plant Response Index (J) (Downy Brome; Table III, 2 WAT, 1.1 kg/h): 2 (50-74% inhibition)
- Plant Response Index (J) (Downy Brome; [9]): 1 (25-49% inhibition)
- Plant Response Index (J) (Downy Brome; Table III, 2 WAT, 5.6 kg/h): 2 (50-74% inhibition)
- Plant Response Index (J) (Downy Brome; [10]): 2 (50-74% inhibition)
- Plant Response Index (J) (Downy Brome; Table III, 2 WAT, .28 kg/h): 1 (25-49% inhibition)
- Plant Response Index (J) (Downy Brome; [11]): 0 (0-24% inhibition)
- Plant Response Index (J) (Downy Brome; Table III, 4 WAT, 1.1 kg/h): 2 (50-74% inhibition)
- Plant Response Index (J) (Downy Brome; [12]): 1 (25-49% inhibition)
- Plant Response Index (J) (Downy Brome; Table III, 4 WAT, 5.6 kg/h): 2 (50-74% inhibition)
- Plant Response Index (J) (Downy Brome; [13]): 3 (75-99% inhibition)
- Plant Response Index (J) (Downy Brome; Table III, 4 WAT, .28 kg/h): 0 (0-24% inhibition)
- Plant Response Index (J) (Downy Brome; [14]): 0 (0-24% inhibition)
- Plant Response Index (G) (Yellow Nutsedge; 2 WAT, 5.6 kg/h): 1 (25-49% inhibition)
- Plant Response Index (G) (Yellow Nutsedge; [15]): 1 (25-49% inhibition)
- Plant Response Index (G) (Yellow Nutsedge; 2 WAT, 11.2 kg/h): 2 (50-74% inhibition)
- Plant Response Index (G) (Yellow Nutsedge; 2 WAT, 11.2 kg/h, formulated in anhydrous tetrahydrofuran): 1 (25-49% inhibition)
- Plant Response Index (G) (Yellow Nutsedge; 4 WAT, 5.6 kg/h): 2 (50-74% inhibition)
- Plant Response Index (G) (Yellow Nutsedge; [3]): 2 (50-74% inhibition)
- Plant Response Index (G) (Yellow Nutsedge; 4 WAT, 11.2 kg/h): 3 (75-99% inhibition)
- Plant Response Index (G) (Yellow Nutsedge; 4 WAT, 11.2 kg/h, formulated in anhydrous tetrahydrofuran): 2 (50-74% inhibition)
- Plant Response Index (B) (Cocklebur; Table II, 2 WAT, 5.6 kg/h): 3 (75-99% inhibition)
- Plant Response Index (B) (Cocklebur; [5]): 2 (50-74% inhibition)
- Plant Response Index (B) (Cocklebur; Table II, 2 WAT, 11.2 kg/h): 2 (50-74% inhibition)
- Plant Response Index (B) (Cocklebur; [6]): 1 (25-49% inhibition)
- Plant Response Index (B) (Cocklebur; Table II, 4 WAT, 5.6 kg/h): 4 (100% inhibition)
- Plant Response Index (B) (Cocklebur; [7]): 3 (75-99% inhibition)
- Plant Response Index (B) (Cocklebur; Table II, 4 WAT, 11.2 kg/h): 4 (100% inhibition)
- Plant Response Index (B) (Cocklebur; [8]): 3 (75-99% inhibition)
- Plant Response Index (B) (Cocklebur; Table III, 2 WAT, 1.1 kg/h): 2 (50-74% inhibition)
- Plant Response Index (B) (Cocklebur; [9]): 2 (50-74% inhibition)
- Plant Response Index (B) (Cocklebur; Table III, 2 WAT, 5.6 kg/h): 2 (50-74% inhibition)
- Plant Response Index (B) (Cocklebur; [10]): 3 (75-99% inhibition)
- Plant Response Index (B) (Cocklebur; Table III, 2 WAT, .28 kg/h): 1 (25-49% inhibition)
- Plant Response Index (B) (Cocklebur; [11]): 2 (50-74% inhibition)
- Plant Response Index (B) (Cocklebur; Table III, 4 WAT, 1.1 kg/h): 3 (75-99% inhibition)
- Plant Response Index (B) (Cocklebur; [12]): 2 (50-74% inhibition)
- Plant Response Index (B) (Cocklebur; Table III, 4 WAT, 5.6 kg/h): 3 (75-99% inhibition)
- Plant Response Index (B) (Cocklebur; [13]): 3 (75-99% inhibition)
- Plant Response Index (B) (Cocklebur; Table III, 4 WAT, .28 kg/h): 1 (25-49% inhibition)
- Plant Response Index (B) (Cocklebur; [14]): 2 (50-74% inhibition)
- Plant Response Index (Q) (Wild Buckwheat; 2 WAT, 1.1 kg/h): 2 (50-74% inhibition)
- Plant Response Index (Q) (Wild Buckwheat; 2 WAT, 1.1 kg/h, formulated in anhydrous tetrahydrofuran): 2 (50-74% inhibition)
- Plant Response Index (Q) (Wild Buckwheat; 2 WAT, 5.6 kg/h): 2 (50-74% inhibition)
- Plant Response Index (Q) (Wild Buckwheat; [15]): 3 (75-99% inhibition)
- Plant Response Index (Q) (Wild Buckwheat; 2 WAT, .28 kg/h): 2 (50-74% inhibition)
- Plant Response Index (Q) (Wild Buckwheat; [1]): 1 (25-49% inhibition)
- Plant Response Index (Q) (Wild Buckwheat; 4 WAT, 1.1 kg/h): 2 (50-74% inhibition)
- Plant Response Index (Q) (Wild Buckwheat; [2]): 2 (50-74% inhibition)
- Plant Response Index (Q) (Wild Buckwheat; 4 WAT, 5.6 kg/h): 3 (75-99% inhibition)
- Plant Response Index (Q) (Wild Buckwheat; [3]): 3 (75-99% inhibition)
- Plant Response Index (Q) (Wild Buckwheat; 4 WAT, .28 kg/h): 2 (50-74% inhibition)
- Plant Response Index (Q) (Wild Buckwheat; [4]): 1 (25-49% inhibition)
